Assay results as given in patent US7851637B2, “Compounds and methods for inhibiting the interaction of BCL proteins with binding partners” (Infinity Pharmaceuticals, Inc., priority 2004, dated 2010).
pKi: −log10 of the molar value.

Tests used:
Bcl-2 = Bcl-2 (Homo sapiens, UniProt P10415); assay: Bcl-2 binding affinity analysis (fluorescence polarization binding assay)
Description: (§1) Bcl-2 and Bcl-xL binding can be determined using a variety of known methods. One such assay is a sensitive and quantitative in vitro binding assay using fluorescence polarization (FP) described by Wang, J. -L.; Zhang, Z -J.; Choksi, S.; Sjam. S.; Lu, Z.; Croce, C. M.; Alnenri, E. S.; Komgold, R.; Huang, Z. Cell permeable Bcl-2 binding peptides: a chemical approach to apoptosis induction in tumor cells. Cancer Res. 2000, 60, 1498-1502).
(§2) Bcl-2 and Bcl-xL binding affinity analysis data is presented below for various compounds of the invention.

Bcl-xL = Bcl-xL (Homo sapiens, UniProt Q07817); assay: Bcl-xL binding affinity analysis (fluorescence polarization binding assay); design: scale not given here
Sequence of Bcl-xL (Q07817 whole entry): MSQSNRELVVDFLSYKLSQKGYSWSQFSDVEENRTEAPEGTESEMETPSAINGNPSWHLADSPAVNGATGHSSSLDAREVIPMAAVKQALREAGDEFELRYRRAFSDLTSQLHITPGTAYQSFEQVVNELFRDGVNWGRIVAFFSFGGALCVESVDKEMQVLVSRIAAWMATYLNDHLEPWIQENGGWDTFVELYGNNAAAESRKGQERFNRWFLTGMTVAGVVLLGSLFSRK
Description: as §1, §2

Sequence of Bcl-2 (P10415 whole entry): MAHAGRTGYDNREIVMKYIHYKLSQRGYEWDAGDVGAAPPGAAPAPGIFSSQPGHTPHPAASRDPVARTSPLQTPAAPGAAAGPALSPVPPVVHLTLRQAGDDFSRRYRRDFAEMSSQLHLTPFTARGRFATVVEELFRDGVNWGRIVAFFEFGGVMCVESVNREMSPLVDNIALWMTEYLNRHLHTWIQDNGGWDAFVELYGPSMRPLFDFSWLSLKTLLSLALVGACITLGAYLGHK

SMILES | pKi (Bcl-2) | Bcl-XL binding affinity Ki (Bcl-xL)
CC(C)C[C@@H](CN(C)C)N(Cc1ccccc1)Cc1cccc(CN2O[C@@H](CO)[C@@H]([C@H](C)O)[C@H]2C(=O)NCc2ccc(-c3ccccc3)cc2)c1 [Compound 536] | 5.22 to 6.10 | ♯
C[C@H](O)[C@@H]1[C@H](CO)ON(Cc2cccc(C#C[C@]3(O)CC[C@H]4[C@@H]5CCc6cc(O)ccc6[C@H]5CC[C@@]43C)c2)[C@@H]1C(=O)NCCCN(C)c1ccccc1 [Compound 34] | < 4.30 | ♯
C[C@@H](O)[C@H]1[C@@H](CO)ON(Cc2cccc(C#CCNC(=O)c3ccccc3)c2)[C@H]1C(=O)NCc1ccc(Oc2ccccc2)cc1 [Compound 63] | 5.22 to 6.10 | ♯
CCN(CC)CCN(Cc1cccc(CN2OC(CO)C(C(C)O)C2C(=O)NC2CC3CC(C2C)C3(C)C)c1)CC1CCCCC1 (stereo not shown) [Compound 419] | > 6.10 | ♯
C[C@@H]1[C@@H](NC(=O)[C@@H]2[C@H]([C@H](C)O)[C@H](CO)ON2Cc2cccc(CN(CCN(C)C)C3CCCCC3)c2)C[C@H]2C[C@@H]1C2(C)C [Compound 211] | > 6.10 | ♯
C[C@@H](O)[C@H]1[C@@H](CO)ON(Cc2cccc(C#CC(O)Cc3ccccc3)c2)[C@H]1C(=O)NCCCN(C)c1ccccc1 (stereo partly shown) [Compound 39] | 5.22 to 6.10 | ♯♯
C[C@@H]1[C@@H](NC(=O)[C@@H]2C([C@H](C)O)[C@H](CO)ON2Cc2cccc(CN(CCN(C)C)CC3CC4C=CC3C4)c2)C[C@H]2C[C@@H]1C2(C)C (stereo partly shown) [Compound 401] | > 6.10 | ♯
C[C@@H]1[C@@H](NC(=O)[C@@H]2[C@H]([C@H](C)O)[C@H](CO)ON2Cc2cccc(N3CCN(C(=S)NCCN4CCOCC4)CC3)c2)C[C@H]2C[C@@H]1C2(C)C [Compound 264] | > 6.10 | ♯
C[C@@H](O)[C@H]1[C@@H](CO)ON(Cc2cccc(C#CCNCc3ccc(-c4ccccc4)cc3)c2)[C@H]1C(=O)NCCCN(C)c1ccccc1 [Compound 71] | 4.30 to 5.22 | 
C[C@@H](O)[C@H]1[C@@H](CO)ON(Cc2cccc(C#CCNS(=O)(=O)c3cccc4cccnc34)c2)[C@H]1C(=O)NCCCN(C)c1ccccc1 [Compound 75] | 5.22 to 6.10 | 
C[C@@H](O)[C@H]1[C@@H](CO)ON(Cc2cccc(C#CCNS(=O)(=O)c3ccc(Oc4ccccc4)cc3)c2)[C@H]1C(=O)NCCCN(C)c1ccccc1 [Compound 72] | 4.30 to 5.22 | 
C[C@@H](O)[C@H]1[C@@H](CO)ON(Cc2cccc(C#CCNC(=O)Nc3ccccc3)c2)[C@H]1C(=O)NCCCN(C)c1ccccc1 [Compound 79] | 5.22 to 6.10 | 
C[C@@H](O)[C@H]1[C@@H](CO)ON(Cc2cccc(C#CCNC(=O)NC3CC3c3ccccc3)c2)[C@H]1C(=O)NCCCN(C)c1ccccc1 (stereo partly shown) [Compound 80] | 5.22 to 6.10 | 
C[C@@H](O)[C@H]1[C@@H](CO)ON(Cc2cccc(C#CCNC(=O)NCc3ccccc3)c2)[C@H]1C(=O)NCCCN(C)c1ccccc1 [Compound 77] | 5.22 to 6.10 | 

The remaining lines, values ahead:

pKi (Bcl-2) | Bcl-XL binding affinity Ki (Bcl-xL) | SMILES
> 6.10 | ♯ | C[C@@H]1[C@@H](NC(=O)[C@@H]2[C@H]([C@H](C)O)[C@H](CO)ON2Cc2cccc(CN(CCc3ccccc3)CCN(C)C)c2)C[C@H]2C[C@@H]1C2(C)C [Compound 209]
> 6.10 | ♯ | C[C@@H]1[C@@H](NC(=O)[C@@H]2[C@H]([C@H](C)O)[C@H](CO)ON2Cc2cccc(-c3cccc(C(=O)N[C@H]4CCNC4)c3)c2)C[C@H]2C[C@@H]1C2(C)C [Compound 114]
> 6.10 | ♯♯ | C[C@@H]1C(NC(=O)[C@@H]2[C@H]([C@H](C)O)[C@H](CO)ON2Cc2cccc(-c3ccc(NC(=O)N(C)CCCN(C)C)cc3)c2)C[C@@H]2CC1C2(C)C (stereo partly shown) [Compound 282]
> 6.10 | ♯ | CC(C)[C@@H](CN(C)C)NC(=O)c1cccc(-c2cccc(CN3O[C@@H](CO)[C@@H]([C@H](C)O)[C@H]3C(=O)N[C@H]3C[C@H]4C[C@@H]([C@@H]3C)C4(C)C)c2)c1 [Compound 100]
> 6.10 | ♯ | C[C@@H]1[C@@H](NC(=O)[C@@H]2[C@H]([C@H](C)O)[C@H](CO)ON2Cc2cccc(-c3ccc4c(=O)n(C)n(C)c(=O)c4c3)c2)C[C@H]2C[C@@H]1C2(C)C [Compound 133]
> 6.10 | ♯♯ | C[C@@H]1[C@@H](NC(=O)[C@@H]2[C@H]([C@H](C)O)[C@H](CO)ON2Cc2cccc(N(CCN(C)C)Cc3ccccc3)c2)C[C@H]2C[C@@H]1C2(C)C [Compound 235]
> 6.10 | ♯ | CCN1CCC[C@H]1CNC(=O)c1cccc(-c2cccc(CN3O[C@@H](CO)[C@@H]([C@H](C)O)[C@H]3C(=O)N[C@H]3C[C@H]4C[C@@H]([C@@H]3C)C4(C)C)c2OC)c1 [Compound 156]
> 6.10 | ♯ | C[C@@H]1[C@@H](NC(=O)[C@@H]2[C@H]([C@H](C)O)[C@H](CO)ON2Cc2cccc(-c3ccc(C(=O)N(C)C)cc3[N+](=O)[O-])c2)C[C@H]2C[C@@H]1C2(C)C [Compound 285]
> 6.10 | ♯♯ | C[C@@H]1[C@@H](NC(=O)[C@@H]2[C@H]([C@H](C)O)[C@H](CO)ON2Cc2cccc(-c3ccc(NS(C)(=O)=O)cc3)c2)C[C@H]2C[C@@H]1C2(C)C [Compound 298]
> 6.10 | ♯ | C[C@@H]1[C@@H](NC(=O)[C@@H]2[C@H]([C@H](C)O)[C@H](CO)ON2Cc2cccc(-c3cccc(C(=O)NCCN4CCCCC4)c3)c2)C[C@H]2C[C@@H]1C2(C)C [Compound 105]
> 6.10 | ♯ | C[C@H](O)[C@@H]1[C@H](CO)ON(Cc2cccc(-c3ccc(NCCN4CCOCC4)cc3)c2)[C@@H]1C(=O)NC1CC2C[C@@H]([C@@H]1C)C2(C)C (stereo partly shown) [Compound 278]
> 6.10 | ♯♯ | CCCNC(=O)c1cccc(-c2cccc(CN3O[C@@H](CO)[C@@H]([C@H](C)O)[C@H]3C(=O)N[C@H]3C[C@H]4C[C@@H]([C@@H]3C)C4(C)C)c2)c1 [Compound 135]
5.22 to 6.10 |  | C[C@@H]1[C@@H](NC(=O)[C@@H]2[C@H]([C@H](C)O)[C@H](CO)ON2Cc2cccc(C#CCNS(=O)(=O)Cc3ccccc3)c2)C[C@H]2C[C@@H]1C2(C)C [Compound 74]
5.22 to 6.10 |  | C[C@@H]1[C@@H](NC(=O)[C@@H]2[C@H]([C@H](C)O)[C@H](CO)ON2Cc2cccc(C#CCNC(=O)NCc3ccccc3)c2)C[C@H]2C[C@@H]1C2(C)C [Compound 78]
5.22 to 6.10 |  | C[C@@H]1[C@@H](NC(=O)[C@@H]2[C@H]([C@H](C)O)[C@H](CO)ON2Cc2cccc(C#CCNCc3ccccn3)c2)C[C@H]2C[C@@H]1C2(C)C [Compound 66]
5.22 to 6.10 |  | C[C@@H]1[C@@H](NC(=O)C2[C@H]([C@H](C)O)[C@H](CO)ON2Cc2cccc(C#CCNS(=O)(=O)c3ccc(-c4ccccc4)cc3)c2)C[C@H]2C[C@@H]1C2(C)C (stereo partly shown) [Compound 73]
5.22 to 6.10 |  | C[C@@H]1[C@@H](NC(=O)[C@@H]2[C@H]([C@H](C)O)[C@H](CO)ON2Cc2cccc(C#CCNCc3c[nH]c4ccccc34)c2)C[C@H]2C[C@@H]1C2(C)C [Compound 68]
5.22 to 6.10 |  | C[C@@H]1[C@@H](NC(=O)[C@@H]2[C@H]([C@H](C)O)[C@H](CO)ON2Cc2cccc(C#CCNS(=O)(=O)c3ccccc3)c2)C[C@H]2C[C@@H]1C2(C)C [Compound 76]
